US10023615B2, “Efficient transport into white blood cells” (priority 2008, dated 2018)
Square brackets hold non-standard residues; d marks the D form. Ends that are not written are not given here.

Legend:
liver and lymph nodes = test: FITC-XG-102 and FITC-D-TAT localization in liver and lymph nodes; assay type: in vivo, Sprague Dawley rat; conditions: 1 mg/kg i.v., 6 h post-injection
Description: FIG. 22A and FIG. 22B: 22A: FITC-XG-102 (SEQ ID NO: 233) localization in the liver. Three cellular fields of FITC-XG-102-labelled cells isolated from liver. From left to right, FITC-labelled XG-102, corresponding DAPI nuclear stain and merge of both images. […] Typicall Kupfer cell shape and nucleus can be differentiated from hepatocytes by their shape. Small and triangle in Kupfer cells in contrast to big exagonal, well organized hepatocytes. Obj 63; bar, 20 μm. 22B: FITC-D-TAT (SEQ ID NO: 4) localization in the liver. Two cellular fields of FITC-D-TAT-labelled cells isolated from liver. From left to right, FITC-labelled XG-102, corresponding DAPI nuclear stain and merge of both images. […] Typicall Kupfer cell shape and nucleus can be differentiated from hepatocytes by their shape. Small and triangle in Kupfer cells in contrast to big exagonal, well organized hepatocytes. Obj 63; bar, 20 μm.
(§1) FIG. 23A and FIG. 23B: 23A: FITC-XG-102 (SEQ ID NO: 233) localization in lymph nodes. Cellular field of FITC-XG-102-labelled cells isolated from lymph nodes. Upper panels from left to right: the composite image is organized with one cellular field stained with FITC-XG-102 (left), Dapi for nuclear stain (middle) and the corresponding merged image (right). In the lower panels, a zoomed cell cluster of each image is illustrated. […] The absence of FITC staining in the lymphoid follicles allows distinguishing from the medullary corde and cortex area. Medullary zone seems to have incorporated the FITC-XG-102, composed in majority by macrophages. Obj 10; bar, 50 μm.
as §1, with “23B:” for “FIG. 23A and FIG. 23B:”, “FITC-D-TAT” for “23A: FITC-XG-102”, “4)” for “233)”, “FITC-D-TAT-labelled” for “FITC-XG-102-labelled”, “FITC-D-TAT” for “FITC-XG-102”, “FITC-D-TAT,” for “FITC-XG-102,”
Female Sprague Dawley rat was injected i.v. in the tail with either 1 mg/kg of FITC-XG102 (SEQ ID NO:233) or 1 mg/kg FITC-D-TAT (SEQ ID NO:4). Rats were sacrified 6 h post-injection using a lethal dose of sodium pentobarbital (150 mg/kg i.p.). For histological analysis and during narcosis, rats were perfused through the heart with 4% paraformaldehyde (PFA) in PBS. Organs (liver and lymph nodes) were cryoprotected in sucrose (30% in PBS), frozen using liquid isopentane and kept for further cryostat sectioning. Sections of 14 μm were incubated for 5 min in PBS before Hoechst staining for 2 min at RT (1 μg/ml). […]

[1] = system: Kupffer cells (CD-14 positive cells) of the liver; test: Liver cell localization of FITC-D-TAT after i.v. injection; assay type: in vivo, mouse; conditions: 0.1 mg/kg i.v.
Description: FIG. 5: (A): Primary cultured macrophages were incubated with XG-102 (SEQ ID NO: 233) and extensively washed. […] (B): Mice were injected i.v. with 0.1 mg/kg FITC-D-TAT (SEQ ID NO: 4 plus FITC) and were sacrificed 24 hours later with PAF perfusion through the heart. Slices were obtained after cryoprotection using cryostat.
Mice were injected i.v. with 0.1 mg/kg of FITC-D-TAT (SEQ ID NO: 4) and were sacrificed by perfusion 24 h later. Liver was removed, cryoprotected and cut into slices with a cryostat. D-TAT was directly visualized via FITC fluorescence and cell nuclei were labeled with Hoechst dye. Hepatocytes are big cells (89% of liver cells) that display a large nucleus, whereas Kupffer cells (resident macrophages of the liver) represent approximately 10% of the cells and are small and thin, elongated cells with small nucleus.

[2] = system: HL-60 cell line (Leukemia); test: Time dependant internalization of FITC-labeled TAT derived transporter constructs into HL-60 cells; assay type: cell-based; conditions: 10 μM; 30 min, 1, 6 or 24 hours
Description: FIG. 3: depicts the results of the time dependant internalization (uptake) of FITC-labeled TAT derived transporter constructs into cells of the HL-60 cell line. […] HL-60 cells were incubated 30 min, 1, 6 or 24 hours with […] of the TAT-derivative transporters. The cells were then washed twice with an acidic buffer (0.2 M Glycin, 0.15 M NaCl, pH 3.0) and twice with PBS. Cells were broken by the addition of RIPA lysis buffer. The relative amount of internalized peptide was then determined by reading the fluorescence intensity (Fusion Alpha plate reader; PerkinElmer) of each extract followed by background substraction and protein content normalization. […]

Lymphocytes T (CD3) = test: Flow cytometry of FITC-transporter content in primary human white blood cells: lymphocytes T; assay type: cell-based; conditions: 1 uM, 30 min
Description: (§2) Primary human white blood cells (WBC) were obtained from whole blood after red blood cell lysis. […] Cells containing D-TAT-FITC and r3-L-TAT-FITC were finally analysed by flow cytometry to measure their respective transporter content.

U937 lymphoma cells = test: Uptake (internalization) of FITC-labeled TAT derived transporter constructs in U937 cells, fluorescence plate reader; assay type: cell-based; conditions: 10 μM, U937, Lymphoma, 24 h
Description: Cells were plated into poly-DL-lysine coated dishes at a concentration of 1×10^6 cells/ml. Plates were then incubated for 24 h at 37° C., 5% CO2, and 100% relative humidity prior to the addition of a known concentration of peptide. After peptide addition, the cells were incubated 30 min, 1, 6 or 24 h at 37° C., 5% CO2, and 100% relative humidity. Cells were then washed twice with an acidic buffer (Glycin 0.2 M, NaCl 0.15 M, pH 3.0) in order to remove the cell-surface adsorbed peptide (see Kameyama et al., (2007), Biopolymers, 88, 98-107). […] The cell wash using an acidic buffer was thus employed to remove the cell-surface adsorbed peptides. […] Cells were broken by the addition of the RIPA lysis buffer. The relative amount of internalized peptide was then determined by fluorescence after background substraction and protein content normalization. • The steps are thus: 1. […] Analysis of peptide internalization with a fluorescence plate reader • f) Cell Culture and Peptide Treatment • (1) The 6 well culture plates are coated with 3 ml of Poly-D-Lys (Sigma P9011; 25 μg/ml in PBS), the 24 well plates with 600 μl and the 96 well plates with 125 μl and incubated for 4 h at 37° C., CO2 5% and 100% relative humidity. • (2) After 4 hours the dishes were washed twice with 3.5 ml PBS, 700 μl or 150 μl PBS for the 6, 24 or 96 well plates, respectively. • (3) The cells were plated into the dishes in 2.4 ml medium (RPMI) at plating densities of 1′000′000 cells/ml for suspension cells. After inoculation, the plates were incubated at 37° C., 5% CO2 and 100% relative humidity for 24 hours prior to the addition of the peptide. Adherent cells should be at a density of 90-95% the day of treatment and were plated in DMEM :
• (4) The cells were treated with the desired concentration of FITC labeled peptide (stock solution at a concentration of 10 mM in H2O). • (5) Following peptide addition, the cells were incubated 0 to 24 hours (e.g. 30 min, 1, 6 or 24 hours) at 37° C., CO2 5% and 100% relative humidity. • Acidic Wash and Cellular Extracts: • (6) The extracts were cooled on ice. • Suspension cells (or cells, which don attach well to the dish): • Transfer the cells in ? […] To recover the maximum of cells, wash the dish with 1 ml of PBS. • Harvest the cells 2 min at 2400 rpm max. • Suspend the cells in 1 ml cold PBS. • Transfer the cells into a coated “Eppendorf tube” (coated with 1 ml of poly D-Lys for 4 hours and washed twice with 1 ml PBS). • Wash three times with 1 ml of cold acidic wash buffer and centrifuge 2 min at 2400 rpm max. Beware of the spreading of the cells in the “eppendorf”. • Wash twice with 1 ml cold PBS to neutralize. • Add 50 μl of lysis RIPA Buffer. • Incubate 30 min-1 h on ice with agitation. • Adherent Cells: • Wash three times with 3 ml, 1 ml or 200 μl (for 6, 24 or 96 well plates, respectively) of cold acidic wash buffer. Beware of the cells who detach from the dish. • Wash twice with 1 ml cold PBS (for 6, 24 or 96 well plates, respectively) to neutralize. • Add 50 μl of lysis RIPA buffer. • Incubate 30 min-1 h on ice with agitation. • Scrap the cells with a cold scrapper. The 24 and 96 well plates were directly centrifuged at 4000 rpm at 4° for 15 min to remove the cellular debris. Then the supernatants (100 or 50 ml respectively for the 24 or 96 well plates) were directly transferred in a dark 96 well plated.

Monocytes (CD14) = test: Flow cytometry of FITC-transporter content in primary human white blood cells: monocytes; assay type: cell-based; conditions: 1 uM, 30 min
Description: as §2

Neutrophils (CD15) = test: Flow cytometry of FITC-transporter content in primary human white blood cells: neutrophils; assay type: cell-based; conditions: 1 uM, 30 min
Description: as §2

Lymphocytes B (CD19) = test: Flow cytometry of FITC-transporter content in primary human white blood cells: lymphocytes B; assay type: cell-based; conditions: 1 uM, 30 min
Description: as §2

U937 cells = test: Intracellular concentration of transporter constructs subsequent to uptake into U937 cells; assay type: cell-based; conditions: U937 cells, 10 μM construct
Description: 9. Determination of Intracellular Concentration of Specific Transporter Constructs Subsequent to Uptake (Internalization) of these Peptides into U937 Cells • According to a further experiment, the concentration of specific transporter constructs subsequent to uptake (internalization) of these peptides into U937 cells were determined.

[3] = system: dissociated cortical primary neurons; test: Confocal microscopy of FITC-labeled TAT derivative transporters in cortical primary neurons; assay type: cell-based, rat; conditions: 500 nM, 24 hours
Description: 8.4 Internalization Experiments and Analysis • The time dependant internalization (uptake) of FITC-labeled TAT derived transporter constructs into cells of the HL-60 cell line was carried out with materials and methods as described above. • Briefly, HL-60 cells were incubated 30 min, 1, 6 or 24 hours with 10 μM of the TAT-derivative transporters. The cells were then washed twice with an acidic buffer (0.2 M Glycin, 0.15 M NaCl, pH 3.0) and twice with PBS. Cells were broken by the addition of RIPA lysis buffer. The relative amount of internalized peptide was then determined by reading the fluorescence intensity (Fusion Alpha plate reader; PerkinElmer) of each extract followed by background substraction and protein content normalization. […] The dissociated cortical primary neurons from P2 Sprague Dawley rats were cultured 12 days in neurobasal medium before exposure 24 hours to 500 nM of the FITC-labeled • TAT derivative transporters. The cells were washed five times with PBS on ice and then mounted in fluorsave mounting medium without prior fixation. Acquisitions were performed on LSM510 metaconfocal microscope (Zeiss). Images were processed with LSM510 software and mounted using Adobe photoshop. Visualization by confocal microscopy of labeling with 500 nM FITC-transporters (A: green). Nuclei were stained by Hoechst (B: blue).

Row | Molecule | localization in lymph nodes (liver and lymph nodes) | localization in the liver (liver and lymph nodes) | cell type of accumulation in liver ([1]; 24 h) | colocalization with CD-14 positive cells in liver ([1]; 24 hours) | time dependant internalization (uptake) [2] | binding to cell population (Lymphocytes T (CD3)) | uptake (internalization) (U937 lymphoma cells) | binding to cell population (Monocytes (CD14)) | binding to cell population (Neutrophils (CD15)) | binding to cell population (Lymphocytes B (CD19)) | intracellular concentration of transporter construct subsequent to uptake (U937 cells; 2 h) | intracellular concentration of transporter construct subsequent to uptake (U937 cells; 4 h) | intracellular concentration of transporter construct subsequent to uptake (U937 cells; 6 h) | intracellular concentration of transporter construct subsequent to uptake (U937 cells; 24 h) | internalization seen by confocal microscopy [3]
1 | N=C(N)NCCC[C@@H](NC(=O)[C@@H](CCCCN)NC(=O)[C@@H](CCCCN)NC(=O)[C@@H](CCCNC(=N)N)NC(=O)[C@@H](CCCNC(=N)N)NC(=O)[C@@H](CCC(N)=O)NC(=O)[C@@H](CCCNC(=N)N)NC(=O)[C@@H](CCCNC(=N)N)NC(=O)[C@@H](CCCNC(=N)N)NC(=O)CCNC(=S)Nc1ccc2c(c1)C(=O)OC21c2ccc(O)cc2Oc2cc(O)ccc21)C(N)=O [FITC-D-TAT, FITC-βA-rrrqrrkkr] | decorates subcapsular sinus macrophages and constitutive migrating alveolar macrophages | efficiently decorates Kupfer cells in contrast to hepatocytes which only show a background staining level | accumulates predominantly in Kupffer cells | colocalization between FITC-D-TAT labelled-cells and CD-14 positive cells | – | – | – | – | – | – | – | – | – | – | –
2 | rKKRrQRRr ([dR]KKR[dR]QRR[dR]) [r3-L-TAT] | – | – | – | – | as effective as the D-TAT transporter construct | binds to monocytes, neutrophils and lymphocyte T cells | most efficient | binds to monocytes, neutrophils and lymphocyte T cells | binds to monocytes, neutrophils and lymphocyte T cells | less efficiently to lymphocyte B cells | 2.34 | 3.16 | 3.56 | 11.2 | internalized into the cytoplasm of the non stressed neurons
3 | rRRQrRKKr [r3-L-TATi] | – | – | – | – | less efficient but still suitable | – | most efficient | – | – | – | – | – | – | – | internalized into the cytoplasm of the non stressed neurons
